The text below walks through data of ChEMBL document CHEMBL4130505, “4-Quinolone hybrids and their antibacterial activities” (Eur J Med Chem, 2017).

Values after ≈ are worked out from the molar mass of the structure shown.

In data set [1] the test system is Escherichia coli. In words: Potency index, ratio of ciprofloxacin EC50 to compound EC50 for antibacterial activity against Escherichia coli NCTC 10419 infected in CF mouse. Type of data set: functional.
The test system of data set [2] is Escherichia coli. As to the kind of experiment: Antibacterial activity against Escherichia coli NCTC 10419 infected in CF mouse assessed as protection against bacterial infection administered orally at 1 and 4 hrs post infection measured after 1 week. The data set is classed as functional, organism-based.
Data set [3] deals with Escherichia coli. In words: Potency index, ratio of ciprofloxacin MIC to compound MIC for Escherichia coli NCTC 10419. Type of data set: functional.
Data set [4] has as its system Escherichia coli. As to the kind of experiment: Antibacterial activity against Escherichia coli. The data set is classed as functional.
Data set [5] concerns Escherichia coli. In words: Potency index, ratio of ciprofloxacin MIC to compound MIC for Escherichia coli. The data set is classed as functional.
A further data set deals with Klebsiella pneumoniae. As to the kind of experiment: Antibacterial activity against Klebsiella pneumoniae by microdilution method. The data set is classed as functional. In general terms: Broth dilution looks for growth in wells or tubes with falling amounts of substance.
Data set [6] in a line: Solubility of the compound in water. The data set is classed as physicochemical.
Data set [7] has as its system Escherichia coli. In words: microbe, parasite or virus in culture. As to conditions: NCTC 10419.
Description: Antibacterial activity against Escherichia coli NCTC 10419 after 18 to 20 hrs by agar dilution method

Regarding `COc1cc(Cc2cnc(/N=C3\C(=O)N(CN4CCN(c5cc6c(cc5F)c(=O)c(C(=O)O)cn6C5CC5)CC4)c4ccc(C)cc43)nc2N)cc(OC)c1OC`, in the data set on Escherichia coli [1], the “Ratio EC50” value stood at 2. The EC50 in the data set with Escherichia coli [2] came to 0.62 mg/kg. The Ratio in the data set on Escherichia coli [3] turned out to be 5.5. `O=C1OCC(OCCN2CCN(c3cc4c(cc3F)c(=O)c(C(=O)O)cn4C3CC3)CC2)=C1c1ccccc1F` had an MIC in the data set on Escherichia coli [4] of 0.11 µg/mL (≈ 0.199 µM). Also, the Ratio in the data set on Escherichia coli [5] was 50. Take `CC1=NOc2c(N3CCC(C)CC3)c(F)cc3c(=O)c(C(=O)O)cn1c23`: the MIC against Klebsiella pneumoniae came out at 8 µg/mL (≈ 22.3 µM). One may read the solubility as the concentration that dissolves in the medium under given conditions. On to `CO/N=C1\CCN(c2cc3c(cc2F)c(=O)c(C(=O)O)cn3C2CC2)CC1N.CS(=O)(=O)O` (stereo unspecified), for which the solubility in data set [6] is 22.5 mg/mL. As for `CC1=NOc2c(N3CCN(C)CC3)c(F)cc3c(=O)c(C(=O)O)cn1c23`, the MIC in the data set with Klebsiella pneumoniae is 8 µg/mL (≈ 22.2 µM). On the same count and under the same terms, with `CC1=NOc2c(N3CCc4ccccc4C3)c(F)cc3c(=O)c(C(=O)O)cn1c23` the figure was 8 µg/mL (≈ 20.3 µM). For the compound `O=C(O)c1cn(C2CC2)c2cc(N3CCNCC3)c(F)cc2c1=O` [CIPROFLOXACIN], the EC50 in the data set with Escherichia coli [2] turned out to be 1.25 mg/kg. This compound had an MIC in the data set with Escherichia coli [7] of 1.1 nM (≈ 0.364 ng/mL).
